# Measured values as given in patent US10670605B2, “Cysteine reactive probes and uses thereof” (The Scripps Research Institute, priority 2015, dated 2020).
# What was measured:
# ZAP70 C117 (P43403) = target: T1, ZAP70 C117 (P43403) (Homo sapiens, UniProt P43403); assay: Competitive isoTOP-ABPP, cell lysates; assay type: binding; conditions: for isoTOP-ABPP ratio (reactivity profile), P43403_C117: 500 μm in-vitro ramos; for isoTOP-ABPP ratio, P43403_C117: 500 μM, invitro
# T1 sequence (P43403 1-619): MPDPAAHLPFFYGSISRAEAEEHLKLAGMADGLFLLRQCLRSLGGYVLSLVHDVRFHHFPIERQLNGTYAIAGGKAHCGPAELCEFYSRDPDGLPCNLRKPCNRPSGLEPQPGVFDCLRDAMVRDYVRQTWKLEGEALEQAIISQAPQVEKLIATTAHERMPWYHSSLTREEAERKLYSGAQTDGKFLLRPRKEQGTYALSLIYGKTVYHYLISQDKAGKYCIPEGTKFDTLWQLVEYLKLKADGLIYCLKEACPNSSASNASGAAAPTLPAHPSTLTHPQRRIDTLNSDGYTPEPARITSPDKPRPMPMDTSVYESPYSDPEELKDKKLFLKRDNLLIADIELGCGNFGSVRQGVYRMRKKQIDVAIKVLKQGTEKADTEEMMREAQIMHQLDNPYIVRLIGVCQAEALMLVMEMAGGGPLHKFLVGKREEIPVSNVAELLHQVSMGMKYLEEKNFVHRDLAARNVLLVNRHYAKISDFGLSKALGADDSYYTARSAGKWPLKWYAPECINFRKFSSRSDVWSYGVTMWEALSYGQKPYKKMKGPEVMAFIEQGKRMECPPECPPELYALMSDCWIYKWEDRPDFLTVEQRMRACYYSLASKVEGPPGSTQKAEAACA
# [1] = target: cysteines in MDA-MB-231 and Ramos cells (Homo sapiens, UniProt Q15796); assay: Competitive isoTOP-ABPP in situ (fragment-treated cells); assay type: cell-based; conditions: 200 μM, insitu
# Chain of cysteines in MDA-MB-231 and Ramos cells (Q15796 whole entry, the tested form may be a part): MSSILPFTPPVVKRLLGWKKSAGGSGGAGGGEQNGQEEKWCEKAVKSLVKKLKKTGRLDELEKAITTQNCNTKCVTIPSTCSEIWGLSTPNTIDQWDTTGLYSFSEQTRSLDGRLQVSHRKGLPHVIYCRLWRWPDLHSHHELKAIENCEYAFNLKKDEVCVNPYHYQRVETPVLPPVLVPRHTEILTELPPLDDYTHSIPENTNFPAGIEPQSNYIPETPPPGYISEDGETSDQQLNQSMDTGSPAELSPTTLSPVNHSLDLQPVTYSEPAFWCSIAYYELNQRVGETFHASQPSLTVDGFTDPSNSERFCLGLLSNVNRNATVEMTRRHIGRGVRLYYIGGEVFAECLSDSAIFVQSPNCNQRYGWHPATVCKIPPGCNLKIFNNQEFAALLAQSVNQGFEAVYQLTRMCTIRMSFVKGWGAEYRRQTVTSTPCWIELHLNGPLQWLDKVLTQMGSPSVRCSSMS
smiles,measurement,setting,value
C=CC(=O)N(Cc1cccnc1)c1ccc(Oc2ccccc2)c(C(F)(F)F)c1 [compound 15],"isoTOP-ABPP ratio (reactivity profile), P43403_C117",ZAP70 C117 (P43403),20.0
COc1ccccc1OCCNC(=O)CCl [compound 28],"isoTOP-ABPP ratio (reactivity profile), P43403_C117",ZAP70 C117 (P43403),1.1
O=C(CCl)N1CCN(S(=O)(=O)c2ccccc2F)CC1 [compound 10],"isoTOP-ABPP ratio, P43403_C117",ZAP70 C117 (P43403); 231,20.0
same,"isoTOP-ABPP ratio, P43403_C117",ZAP70 C117 (P43403); ramos,20.0
O=C(CCl)N1CCN(CC(=O)N2CCOCC2)CC1 [compound 29],isoTOP-ABPP ratio Q15796_C81,[1]; ramos,1.3
O=C(CCl)NC12CC3CC(CC(C3)C1)C2 [compound 21],"isoTOP-ABPP ratio, cysteine Q15796_C81",[1]; 231,1.3
O=C(CCl)N1CCC(C(O)(c2ccccc2)c2ccccc2)CC1 [compound 20],"isoTOP-ABPP ratio (reactivity profile), P43403_C117",ZAP70 C117 (P43403),20.0
